This passage reports EC50 and CC50 results from patent US9850251B2, “Imidazole derivative used as antiviral agent and use therof in preparation of medicament” (priority 2013, dated 2017).

The test system of data set [1] is RSV respiratory tract virus (A long strain). Description: RSV long CPE assay (cytopathic effect assay), EC50. The settings on record: human respiratory syncytial virus, HEp-2, 120 h; Hep2 cells infected with RSV A long strain, 5 days, CCK-8 readout. Format: cell-based. The procedure:
(§1) Detect EC50 and CC50 values of anti RSV respiratory tract virus compounds through the cytopathic effect assay.
Virus strain: RSV respiratory tract virus (A long strain)
(§2) The cell plate was centrifugated (300 rpm) to make the cells adherent to the wall, placed into a 37° C., 5% CO2 incubator overnight.
(§3) 1) the compound in 100% DMSO underwent a semi logarithmic dilution, then was added to the cell plate with a Echo liquid handler. Ensure that the final concentration of DMSO was 1%;
(§4) 2) Cell-control hole: no compound and viruse were added; virus-control hole: no compound was added.
dilute RSV viruses to 100 TCID50/30 μL with medium cultured with 4° C. cells, and then add the diluted viruses to a cell plate (30 μL/hole) with Multidrop® automatic liquid distributor, and then placed into a 37° C., 5% CO2 culture incubator for 5 days.
1) after 5 days, observe the pathological change in each hole.
(§5) 2) add CCK-8 (Dojindo-CK04-20, 6 μL/hole) to 384 well plate with Multidrop® automatic liquid distributor;
(§6) 3) place the plate at a 37° C., 5% CO2 culture incubator for 3˜4 h, read the absorbance value with SPECTRA max 340PC_Molecular device at 450 nm and 630 nm;
Background: Damage to the host cells serves as the signal in cytopathic effect assays.

Data set [2] is described as follows: RSV long CPE assay (cytopathic effect assay), CC50 toxicity in vitro. Format: cell-based. The settings on record: human, Hep2 cells, CCK-8 readout, top concentration 100 μM. The procedure:
as §1, §2, §3, §4, §5, §6

Bounds are passed on as bounds.

As for `CC(C)S(=O)(=O)N1CC2(C1)C(=O)N(Cc1nc3c(n1CCCC(F)(F)F)CCCC3)c1ccccc12` [Embodiment 99, 1-(Isopropylsulfonyl)-1′-((1-(4,4,4-trifluorobutyl)-4,5,6,7-tetrahydro-1H-benzo[d]imidazol-2-yl)methyl)spiro[azetidine-3,3′-indoline]-2′-one], the EC50 (commonly the concentration at which the effect is half-maximal) in data set [1] was less than 0.1 µM. The CC50 (usually the concentration at which the toxic effect on the cells reaches its halfway point) at 5 days in data set [2] was more than 100 µM.

In turn, `CC(C)OC(=O)N1CC2(C1)C(=O)N(Cc1nc3c(n1CCCCO)CCCC3)c1ccc(Br)cc12` [Embodiment 78, Isopropyl 5′-bromo-1′-((1-(4-hydroxybutyl)-4,5,6,7-tetrahydro-1H-benzo[d]imidazol-2-yl)methyl)-2′-oxospiro[azetidine-3,3′-indoline]-1-carboxylate] came in with a concentration for a half-maximal effect (EC50) in data set [1] of less than 0.1 µM. In data set [2], the CC50 at 5 days is more than 100 µM.

In data set [1], `CC(C)OC(=O)N1CC2(C1)C(=O)N(Cc1nc3c(n1CCCC(F)(F)F)CCC3)c1ccccc12` [Embodiment 102, Isopropyl 2′-oxo-1′-((1-(4,4,4-trifluorobutyl)-1,4,5,6-tetrahydrocyclopenta[d]imidazol-2-yl)methyl)spiro[azetidine-3,3′-indoline]-1-carboxylate] had an EC50 of less than 0.1 µM. Besides, the CC50 at 5 days in data set [2] is more than 100 µM.

`CC(C)OC(=O)N1CC2(C1)C(=O)N(Cc1nc3c(n1CCCCO)CCC3)c1ccccc12` [Embodiment 103, Isopropyl 1′-((1-(4-hydroxybutyl)-1,4,5,6-tetrahydrocyclopenta[d]imidazol-2-yl)methyl)-2′-oxospiro[azetidine-3,3′-indoline]-1-carboxylate]: the EC50 in data set [1] is less than 0.1 µM. Moreover, the half-maximal cytotoxic concentration (CC50) at 5 days in data set [2] was more than 100 µM.

In data set [1], `CCOC(=O)N1CC2(C1)C(=O)N(Cc1nc3c(n1CCCC(F)(F)F)CCCC3C)c1ccccc12` (stereo not drawn) [Embodiment 110, Ethyl 1′-((4-methyl-1-(4,4,4-trifluorobutyl)-4,5,6,7-tetrahydro-1H-benzo[d]imidazol-2-yl)methyl)-2′-oxospiro[azetidine-3,3′-indoline]-1-carboxylate] yielded an EC50 of 0.1 to 1 µM. In data set [2], the half-maximal cytotoxic concentration (CC50) at 5 days is more than 100 µM.

Turning to `CCOC(=O)N1CC2(C1)C(=O)N(Cc1nc3c(n1CCCC(F)(F)F)CCCC3)c1cnccc12` [Embodiment 87, Ethyl 2′-oxo-1′-((1-(4,4,4-trifluorobutyl)-4,5,6,7-tetrahydro-1H-benzo[d]imidazol-2-yl)methyl)-1′,2′-dihydrospiro[azetidine-3,3′-pyrrolo[2,3-c]pyridine]-1-carboxylate], in data set [1], the EC50 is less than 0.1 µM. Moreover, in data set [2], the CC50 at 5 days was more than 100 µM.

Regarding `CC(C)OC(=O)N1CC2(C1)C(=O)N(Cc1nc3c(n1CC(F)(F)C(C)C)CCCC3)c1ccccc12` [Embodiment 69, Isopropyl 1′-((1-(2,2-difluoro-3-methylbutyl)-4,5,6,7-tetrahydro-1H-benzo[d]imidazol-2-yl)methyl)-2′-oxospiro[azetidine-3,3′-indoline]-1-carboxylate], the EC50 in data set [1] was less than 0.1 µM. Moreover, in data set [2], the CC50 at 5 days is more than 100 µM.

On to `CCOC(=O)N1CC2(C1)C(=O)N(Cc1nc3c(n1CCCS(C)(=O)=O)CCCC3)c1ccccc12` [Embodiment 76, Ethyl 1′-((1-(3-(methylsulfonyl)propyl)-4,5,6,7-tetrahydro-1H-benzo[d]imidazol-2-yl)methyl)-2′-oxospiro[azetidine-3,3′-indoline]-1-carboxylate], for which the EC50 in data set [1] is less than 0.1 µM. Besides, the CC50 at 5 days in data set [2] is more than 100 µM.

`CC(C)OC(=O)N1CC2(C1)C(=O)N(Cc1nc3c(n1CCCC(F)(F)F)C(O)CCC3)c1ccccc12` (stereo not drawn) [Embodiment 109, Isopropyl 1′-((7-hydroxy-1-(4,4,4-trifluorobutyl)-4,5,6,7-tetrahydro-1H-benzo[d]imidazol-2-yl)methyl)-2′-oxospiro[azetidine-3,3′-indoline]-1-carboxylate]: the EC50 in data set [1] lay in the range of 0.1 to 1 µM. This compound also had a CC50 at 5 days in data set [2] of more than 100 µM.

In the case of `CCOC(=O)N1CC2(C1)C(=O)N(Cc1nc3c(n1CCCCF)CCCC3)c1ccccc12` [Embodiment 73], the EC50 in data set [1] is less than 0.1 µM. Moreover, the CC50 at 5 days in data set [2] is more than 100 µM.

Compound `CC(C)OC(=O)N1CC2(C1)C(=O)N(Cc1nc3c(n1CC(=O)C(C)C)CCCC3)c1ccccc12` [Embodiment 68, Isopropyl 1′-((1-(3-methyl-2-oxobutyl)-4,5,6,7-tetrahydro-1H-benzo[d]imidazol-2-yl)methyl)-2′-oxospiro[azetidine-3,3′-indoline]-1-carboxylate] yielded an EC50 in data set [1] of 0.1 to 1 µM. The CC50 at 5 days in data set [2] is more than 100 µM.

In data set [1], `CCC(=O)N1CC2(C1)C(=O)N(Cc1nc3c(n1CCCC(F)(F)F)CCCC3)c1ccccc12` [Embodiment 94, 1-Propionyl-1′-((1-(4,4,4-trifluorobutyl)-4,5,6,7-tetrahydro-1H-benzo[d]imidazol-2-yl)methyl)spiro[azetidine-3,3′-indoline]-2′-one] yielded an EC50 of less than 0.1 µM. In data set [2], this compound had a CC50 at 5 days of more than 100 µM.

`CC(C)OC(=O)N1CC2(C1)C(=O)N(Cc1nc3c(n1CCCCO)CCCC3)c1ccccc12` [Embodiment 62, Isopropyl 1′-((1-(4-hydroxybutyl)-4,5,6,7-tetrahydro-1H-benzo[d]imidazol-2-yl)methyl)-2′-oxospiro[azetidine-3,3′-indoline]-1-carboxylate] came in with an EC50 in data set [1] of less than 0.1 µM. The CC50 at 5 days in data set [2] is more than 100 µM.

In data set [1], `CS(=O)(=O)N1CC2(C1)C(=O)N(Cc1nc3c(n1CCCC(F)(F)F)CCCC3)c1ccccc12` [Embodiment 97, 1-(Methylsulfonyl)-1′-((1-(4,4,4-trifluorobutyl)-4,5,6,7-tetrahydro-1H-benzo[d]imidazol-2-yl)methyl)spiro[azetidine-3,3′-indoline]-2′-one] registered a concentration giving a half-maximal response (EC50) of less than 0.1 µM. In addition, the CC50 at 5 days in data set [2] was more than 100 µM.

`O=C(C1CC1)N1CC2(C1)C(=O)N(Cc1nc3c(n1CCCC(F)(F)F)CCCC3)c1cnccc12` [Embodiment 89, 1-(Cyclopropanecarbonyl)-1′-((1-(4,4,4-trifluorobutyl)-4,5,6,7-tetrahydro-1H-benzo[d]imidazol-2-yl)methyl)spiro[azetidine-3,3′-pyrrolo[2,3-c]pyridine]-2′(1′H)-one] had an EC50 in data set [1] of less than 0.1 µM. In data set [2], the CC50 at 5 days is more than 100 µM.

As for `CS(=O)(=O)N1CC2(C1)C(=O)N(Cc1nc3c(n1CCCC(F)(F)F)CCC3)c1ccccc12` [Embodiment 106, 1-(Methylsulfonyl)-1′-((1-(4,4,4-trifluorobutyl)-1,4,5,6-tetrahydrocyclopenta[d]imidazol-2-yl)methyl)spiro[azetidine-3,3′-indoline]-2′-one], the EC50 in data set [1] is less than 0.1 µM. In data set [2], this compound registered a CC50 at 5 days of more than 100 µM.

In turn, `CC(C)OC(=O)N1CC2(C1)C(=O)N(Cc1nc3c(n1CC(F)(F)CCF)CCCC3)c1ccccc12` [Embodiment 66, Isopropyl 2′-oxo-1′-((1-(2,2,4-trifluorobutyl)-4,5,6,7-tetrahydro-1H-benzo[d]imidazol-2-yl)methyl)spiro[azetidine-3,3′-indoline]-1-carboxylate] registered a concentration giving a half-maximal response (EC50) in data set [1] of less than 0.1 µM. In data set [2], this compound gave a CC50 at 5 days of more than 100 µM.

The compound `CC(C)C(=O)N1CC2(C1)C(=O)N(Cc1nc3c(n1CCCC(F)(F)F)CCC3)c1ccccc12` [Embodiment 105, 1-Isobutyryl-1′-((1-(4,4,4-trifluorobutyl)-1,4,5,6-tetrahydrocyclopenta[d]imidazol-2-yl)methyl)spiro[azetidine-3,3′-indoline]-2′-one] registered an EC50 in data set [1] of less than 0.1 µM. In data set [2], this compound returned a cytotoxic concentration (CC50) at 5 days of more than 100 µM.

In data set [1], `O=CN1CC2(C1)C(=O)N(Cc1nc3c(n1CCCC(F)(F)F)CCCC3)c1ccccc12` [Embodiment 90, 2′-Oxo-1′-((1-(4,4,4-trifluorobutyl)-4,5,6,7-tetrahydro-1H-benzo[d]imidazol-2-yl)methyl)spiro[azetidine-3,3′-indoline]-1-carbaldehyde] returned an EC50 of less than 0.1 µM. The compound further showed a CC50 at 5 days in data set [2] of more than 100 µM.

In turn, `O=C(C1CC1)N1CC2(C1)C(=O)N(Cc1nc3c(n1CCCC(F)(F)F)CCCC3)c1ccccc12` [Embodiment 93, 1-(Cyclopropanecarbonyl)-1′-((1-(4,4,4-trifluorobutyl)-4,5,6,7-tetrahydro-1H-benzo[d]imidazol-2-yl)methyl)spiro[azetidine-3,3′-indoline]-2′-one] registered a concentration giving a half-maximal response (EC50) in data set [1] of less than 0.1 µM. In data set [2], this compound returned a CC50 at 5 days of more than 100 µM.

`CC(C)OC(=O)N1CC2(C1)C(=O)N(Cc1nc3c(n1CCCC(F)(F)F)CCCC3)c1cnccc12` [Embodiment 88, Isopropyl 2′-oxo-1′-((1-(4,4,4-trifluorobutyl)-4,5,6,7-tetrahydro-1H-benzo[d]imidazol-2-yl)methyl)-1′,2′-dihydrospiro[azetidine-3,3′-pyrrolo[2,3-c]pyridine]-1-carboxylate]: the EC50 in data set [1] was less than 0.1 µM. Further, the CC50 at 5 days in data set [2] was more than 100 µM.

The compound `CC(C)OC(=O)N1CC2(C1)C(=O)N(Cc1nc3c(n1CCCC(F)(F)F)CCCC3)c1ccc(Cl)cc12` [Embodiment 80, Isopropyl 5′-chloro-2′-oxo-1′-((1-(4,4,4-trifluorobutyl)-4,5,6,7-tetrahydro-1H-benzo[d]imidazol-2-yl)methyl)spiro[azetidine-3,3′-indoline]-1-carboxylate] displayed an EC50 in data set [1] of less than 0.1 µM. In data set [2], this compound registered a CC50 at 5 days of more than 100 µM.

Turning to `CCOC(=O)N1CC2(C1)C(=O)N(Cc1nc(CC)c(CC)n1CCCCO)c1ccccc12` [Embodiment 101, Ethyl 1′-((4,5-diethyl-1-(4-hydroxybutyl)-1H-imidazol-2-yl)methyl)-2′-oxospiro[azetidine-3,3′-indoline]-1-carboxylate], the CC50 at 5 days in data set [2] is more than 100 µM.
